Results: the CheMixHub ionic liquid set
± gives the uncertainty stated by the source.

Assay: xn = mol fraction of the nth substance listed

CS(=O)(=O)[O-].C[N+](C)(CCO)CCO + CO
viscosity [mPa·s], 101 kPa
Conditions | x1 = 0.1 | x1 = 0.1996 | x1 = 0.3001 | x1 = 0.4004 | x1 = 0.5005 | x1 = 0.5976 | x1 = 0.7022 | x1 = 0.8012 | x1 = 0.9012 | x1 = 1
298.15 K | 2.03 ± 0.14 | 5.81 ± 0.38 | 14.8 ± 1 | 34.4 ± 2.2 | 74.1 ± 4.7 | 164 ± 12 | 316 ± 26 | 566 ± 55 | 940 ± 100 | 1495 ± 180
303.15 K | 1.85 ± 0.12 | 5.12 ± 0.33 | 12.57 ± 0.8 | 28.1 ± 1.8 | 58.3 ± 3.7 | 125.1 ± 8.5 | 231 ± 18 | 402 ± 36 | 656 ± 65 | 1021 ± 110
308.15 K | 1.69 ± 0.11 | 4.55 ± 0.3 | 10.99 ± 0.7 | 23.3 ± 1.5 | 46.7 ± 2.9 | 86.6 ± 5.6 | 175 ± 13 | 296 ± 24 | 469 ± 43 | 716 ± 73
313.15 K | 1.55 ± 0.1 | 4.06 ± 0.26 | 9.61 ± 0.61 | 19.6 ± 1.2 | 38 ± 2.4 | 68.4 ± 4.3 | 134.1 ± 9.2 | 222 ± 17 | 344 ± 29 | 513 ± 48
318.15 K | 1.431 ± 0.094 | 3.64 ± 0.24 | 8.35 ± 0.53 | 16.6 ± 1 | 31.3 ± 2 | 54.9 ± 3.4 | 105.2 ± 6.9 | 170 ± 12 | 258 ± 20 | 378 ± 33
323.15 K | 1.323 ± 0.087 | 3.29 ± 0.21 | 7.37 ± 0.47 | 14.24 ± 0.9 | 26.1 ± 1.6 | 44.7 ± 2.8 | 75.7 ± 4.7 | 132.2 ± 9 | 197 ± 15 | 282 ± 23

CCCC[n+]1ccc(C)cc1.[Br-] + CO/N=C(\C(=O)N[C@@H]1C(=O)N2C(C(=O)[O-])=C(CSc3nc(=O)c(=O)[n-]n3C)CS[C@H]12)c1csc(N)n1.[Na+].[Na+] + O
viscosity [mPa·s], 100 kPa
Conditions | 288.15 K | 293.15 K | 298.15 K | 303.15 K | 308.15 K
x2 = 0, x1 = 0.0007903 | 1.165 ± 0.048 | 1.024 ± 0.042 | 0.907 ± 0.037 | 0.813 ± 0.033 | 0.734 ± 0.03
x2 = 0, x1 = 0.001191 | 1.176 ± 0.048 | 1.037 ± 0.043 | 0.919 ± 0.038 | 0.824 ± 0.034 | 0.745 ± 0.031
x2 = 0, x1 = 0.001595 | 1.195 ± 0.049 | 1.044 ± 0.043 | 0.926 ± 0.038 | 0.833 ± 0.034 | 0.75 ± 0.031
x2 = 0.0008523, x1 = 0.0007896 | 1.293 ± 0.053 | 1.134 ± 0.047 | 0.998 ± 0.041 | 0.892 ± 0.037 | 0.805 ± 0.033
x2 = 0.0008581, x1 = 0.00119 | 1.321 ± 0.055 | 1.176 ± 0.049 | 1.024 ± 0.043 | 0.918 ± 0.038 | 0.827 ± 0.034
x2 = 0.001389, x1 = 0.0007891 | 1.39 ± 0.057 | 1.219 ± 0.05 | 1.077 ± 0.044 | 0.965 ± 0.04 | 0.863 ± 0.035
x2 = 0.001401, x1 = 0.001593 | 1.423 ± 0.059 | 1.241 ± 0.051 | 1.103 ± 0.045 | 0.989 ± 0.041 | 0.884 ± 0.036
x2 = 0.001946, x1 = 0.0007887 | 1.504 ± 0.062 | 1.31 ± 0.054 | 1.157 ± 0.048 | 1.035 ± 0.043 | 0.931 ± 0.038
x2 = 0.001971, x1 = 0.001189 | 1.511 ± 0.062 | 1.342 ± 0.055 | 1.183 ± 0.049 | 1.055 ± 0.043 | 0.948 ± 0.039
x2 = 0.001975, x1 = 0.001592 | 1.545 ± 0.064 | 1.355 ± 0.056 | 1.192 ± 0.049 | 1.065 ± 0.044 | 0.954 ± 0.039
x2 = 0.002543, x1 = 0.0007882 | 1.632 ± 0.067 | 1.427 ± 0.059 | 1.256 ± 0.052 | 1.12 ± 0.046 | 1.007 ± 0.041
x2 = 0.002544, x1 = 0.001591 | 1.673 ± 0.069 | 1.464 ± 0.06 | 1.295 ± 0.053 | 1.152 ± 0.047 | 1.031 ± 0.042
x2 = 0.003109, x1 = 0.001187 | 1.806 ± 0.074 | 1.567 ± 0.065 | 1.379 ± 0.057 | 1.224 ± 0.05 | 1.096 ± 0.045
x2 = 0.003138, x1 = 0.0007878 | 1.767 ± 0.073 | 1.543 ± 0.063 | 1.364 ± 0.056 | 1.213 ± 0.05 | 1.086 ± 0.045
x2 = 0.003151, x1 = 0.00159 | 1.823 ± 0.075 | 1.589 ± 0.066 | 1.399 ± 0.058 | 1.244 ± 0.051 | 1.113 ± 0.046
x2 = 0.003944, x1 = 0.001186 | 2.024 ± 0.084 | 1.764 ± 0.073 | 1.544 ± 0.064 | 1.369 ± 0.056 | 1.222 ± 0.05
x2 = 0.003953, x1 = 0.0007871 | 1.993 ± 0.082 | 1.729 ± 0.071 | 1.519 ± 0.062 | 1.351 ± 0.056 | 1.208 ± 0.05
x2 = 0.003986, x1 = 0.001589 | 2.106 ± 0.087 | 1.787 ± 0.074 | 1.577 ± 0.065 | 1.395 ± 0.058 | 1.245 ± 0.051
x2 = 0.004811, x1 = 0.001588 | 2.346 ± 0.097 | 2.022 ± 0.084 | 1.772 ± 0.073 | 1.562 ± 0.065 | 1.389 ± 0.057
x2 = 0.004834, x1 = 0.0007864 | 2.266 ± 0.093 | 1.959 ± 0.081 | 1.718 ± 0.071 | 1.524 ± 0.063 | 1.35 ± 0.056
x2 = 0.004855, x1 = 0.001185 | 2.32 ± 0.096 | 2.01 ± 0.083 | 1.757 ± 0.073 | 1.552 ± 0.064 | 1.38 ± 0.057
x2 = 0.005536, x1 = 0.0007859 | 2.52 ± 0.1 | 2.173 ± 0.09 | 1.904 ± 0.078 | 1.68 ± 0.069 | 1.492 ± 0.061
x2 = 0.005537, x1 = 0.001184 | 2.56 ± 0.11 | 2.232 ± 0.092 | 1.937 ± 0.08 | 1.706 ± 0.07 | 1.514 ± 0.062
x2 = 0.005566, x1 = 0.001586 | 2.63 ± 0.11 | 2.267 ± 0.094 | 1.983 ± 0.082 | 1.738 ± 0.072 | 1.544 ± 0.064
